Laboratory results taken from patent US10376499B2, “Combination therapy for treatment of resistant bacterial infections” (priority 2014, dated 2019).
Where a name gives a salt, the structure may show the parent alone. Read-outs that look alike come from different tables or passages of the source.

Key:
[1] = test system: Klebsiella pneumoniae; test: MIC, recent Enterobacteriaceae clinical isolates: Klebsiella pneumoniae (Examples 7, 11)
[2] = test system: Enterobacter cloacae; test: MIC, recent Enterobacteriaceae clinical isolates: Enterobacter cloacae (Examples 7, 11); format: cell-based
[3] = test system: Escherichia coli; test: MIC, recent Enterobacteriaceae clinical isolates: Escherichia coli (Examples 7, 11); conditions: Escherichia coli
[4] = test system: A. baumannii; test: MIC, 20 diverse recent strains of A. baumannii (Example 10); format: cell-based, Acinetobacter baumannii; conditions: N 20 A. baumannii strains
[5] = test system: Enterobacteriaceae; test: organism not typed; format: cell-based
[6] = test system: A. baumannii; test: Neutropenic mouse thigh and lung infection models; conditions: neutropenic CD-1 mice, subcutaneous q3h, sulbactam+compound 1 at 4:1 ratio, 24 h, isolate containing AmpC, OXA-66, OXA-72, TEM-1, FIG. 4
[7] = test system: Citrobacter spp; test: MIC, recent Enterobacteriaceae clinical isolates: Citrobacter spp (Examples 7, 11); format: cell-based; conditions: for MIC: read-out: MIC

Q: Which results are given for CC1=C[C@@H]2CN(C(=O)N2OS(=O)(=O)O)[C@@H]1C(N)=O [Compound 1, (2S,5R)-2-carbamoyl-3-methyl-7-oxo-1,6-diazabicyclo[3.2.1]oct-3-en-6-yl hydrogen sulfate]?
A: MIC50 [1]: 1 µg/mL; MIC90 [1]: 4 µg/mL; MIC ([1]; Klebsiella pneumoniae ARC4414, SHV-11): 2 µg/mL; MIC ([1]; Klebsiella pneumoniae ARC4420, SHV-11, SHV-12, DHA-1, OXA-1): 1 µg/mL; MIC ([1]; Klebsiella pneumoniae ARC4427, SHV-1, OXA-1): 0.25 µg/mL; MIC ([1]; Klebsiella pneumoniae ARC4434, SHV-11): 2 µg/mL; MIC ([1]; Klebsiella pneumoniae ARC4435, SHV-157): 0.25 µg/mL; MIC ([1]; Klebsiella pneumoniae ARC4446, SHV-11): 2 µg/mL; MIC ([1]; Klebsiella pneumoniae ARC4451, SHV-11, KPC-3): 0.5 µg/mL; MIC ([1]; Klebsiella pneumoniae ARC4457, SHV-11, DHA-1): 0.5 µg/mL; MIC ([1]; Klebsiella pneumoniae ARC4460, SHV-11, CTX-M15, OXA-1, NDM-1): 4 µg/mL; MIC ([1]; Klebsiella pneumoniae ARC4467, SHV-33, TEM-1, OXA-1, DHA-1): 4 µg/mL; MIC ([1]; Klebsiella pneumoniae ARC4468, SHV-1): 8 µg/mL; MIC ([1]; Klebsiella pneumoniae ARC4476, SHV-11, KPC-2, OXA-9[W117*]): 4 µg/mL; MIC ([1]; Klebsiella pneumoniae ARC4480, SHV-27): 0.5 µg/mL; MIC ([1]; Klebsiella pneumoniae ARC4483, SHV-11): 1 µg/mL; MIC ([1]; Klebsiella pneumoniae ARC4484, SHV-168): 1 µg/mL; MIC ([1]; Klebsiella pneumoniae ARC4488, SHV-11, CTX-M15, OXA-1, TEM-1): 0.25 µg/mL; MIC ([1]; Klebsiella pneumoniae ARC4490, SHV-11, CTX-M15, KPC-2, OXA-1): 0.5 µg/mL; MIC ([1]; Klebsiella pneumoniae ARC4495, SHV-60, LAP-2): 4 µg/mL; MIC ([2]; Enterobacter cloacae ARC4438, AmpC+, read-out: MIC): 2 µg/mL; MIC ([2]; Enterobacter cloacae ARC4439, AmpC+, LAP-2+, read-out: MIC): 0.5 µg/mL; MIC ([2]; Enterobacter cloacae ARC4444, AmpC+, MIR-8[I175L]): 4 µg/mL; MIC ([2]; Enterobacter cloacae ARC4458, AmpC+, ACT-2[V312M]): 8 µg/mL; MIC ([2]; Enterobacter cloacae ARC4461, AmpC+, TEM-1, read-out: MIC): 0.25 µg/mL; MIC ([2]; Enterobacter cloacae ARC4462, AmpC+, read-out: MIC): 0.5 µg/mL; MIC ([2]; Enterobacter cloacae ARC4473, SHV-5+, AmpC+, DHA-1+, TEM-1+, read-out: MIC): 0.5 µg/mL; MIC ([2]; Enterobacter cloacae ARC4489, AmpC+, read-out: MIC): 1 µg/mL; MIC ([2]; Enterobacter cloacae ARC4492, AmpC+, read-out: MIC): 0.5 µg/mL; MIC ([2]; Enterobacter cloacae ARC4494, OXA-1+, DHA-1+, AmpC+, read-out: MIC): 0.25 µg/mL; MIC90 ([2]; N 10): 4 µg/mL; MIC range ([2]; N 10): 0.25 to 8 µg/mL; MIC50 ([2]; N 10, read-out: MIC50): 0.5 µg/mL; MIC [3]: 0.125 µg/mL; MIC50 [3]: 0.5 µg/mL; MIC90 [3]: 4 µg/mL; MIC ([3]; ATCC25922, Escherichia coli ARC4, none (ATCC 25922) CLSI control): 8 µg/mL; MIC ([3]; Escherichia coli ARC4416, CTX-M-14+, TEM-1+): 0.5 µg/mL; MIC ([3]; Escherichia coli ARC4418, CTX-M-14+, CMY-2+): 0.25 µg/mL; MIC ([3]; Escherichia coli ARC4419, SHV-12+): 0.25 µg/mL; MIC ([3]; Escherichia coli ARC4421, CTX-M-55, TEM-1+, CMY-2+): 0.25 µg/mL; MIC ([3]; Escherichia coli ARC4429, TEM-1+, CMY-2+): 0.25 µg/mL; MIC ([3]; Escherichia coli ARC4432, CTX-M-14+, TEM-1+, CMY-2+): 0.25 µg/mL; MIC ([3]; Escherichia coli ARC4436, CTX-M-14+, TEM-1+): 0.25 µg/mL; MIC ([3]; Escherichia coli ARC4449, CMY-2+, TEM-1+): 0.5 µg/mL; MIC ([3]; Escherichia coli ARC4450, TEM-1+, OXA-1+, CMY-2+): 2 µg/mL; MIC ([3]; Escherichia coli ARC4452, SHV-12+): 0.25 µg/mL; MIC ([3]; Escherichia coli ARC4455, SHV-12+): 0.25 µg/mL; MIC ([3]; Escherichia coli ARC4465, CMY-2+): 0.25 µg/mL; MIC ([3]; Escherichia coli ARC4471, CMY-2+, OXA-1+, TEM-1+): 4 µg/mL; MIC ([3]; Escherichia coli ARC4472, CMY-2+, TEM-1+): 2 µg/mL; MIC ([3]; Escherichia coli ARC4477, CTX-M-15+, TEM-1+): 2 µg/mL; MIC ([3]; Escherichia coli ARC4478, CTX-M-15+, CMY-2+): 0.5 µg/mL; MIC ([3]; Escherichia coli ARC4479, CMY-42+, OXA-1+, OXA-9+, TEM-1+): 32 µg/mL; MIC ([3]; Escherichia coli ARC4485, CMY-2+, OXA-1+, CTX-M-15+): 0.5 µg/mL; MIC ([3]; Escherichia coli ARC4487, SHV-5+, DHA-1+, TEM-1+, OXA-1+, CMY-2+): 4 µg/mL; MIC50 [4]: 64 µg/mL; MIC90 [4]: > 64 µg/mL; MIC Max [4]: > 64 µg/mL; MIC Min [4]: 16 µg/mL; MIC50 [5]: 0.5 µg/mL; MIC90 [5]: 4 µg/mL; MIC range ([5]; Total Enterobacteriaceae, N 59): 0.125 to 32 µg/mL; efficacy (mean delta log CFU) [6]: recover the activity; MIC ([7]; Citrobacter braakii ARC3660, CTX-M-15): 0.25 µg/mL; MIC ([7]; Citrobacter freundii ARC3522, AmpC, TEM-1, CMY65): 0.5 µg/mL; MIC ([7]; Citrobacter freundii ARC3883, KPC-2): 32 µg/mL; MIC ([7]; Citrobacter freundii ARC3884, KPC-2): 4 µg/mL; MIC ([7]; Citrobacter freundii ARC3885, AmpH, TEM-1, SHV-5, CMY-6, CMY-13): 4 µg/mL; MIC ([7]; Citrobacter koseri ARC2001, ESBL): 0.5 µg/mL; MIC ([7]; Citrobacter koseri ARC2002, ESBL): 0.5 µg/mL; MIC range ([7]; Citrobacter spp, N 7): 0.25 to 4 µg/mL; MIC50 ([7]; Citrobacter spp, N 7, read-out: MIC50): 0.5 µg/mL; MIC90 ([7]; Citrobacter spp, N 7, read-out: MIC90): 4 µg/mL
